Assays:
Dihydrofolate reductase = molecular target: T1, Dihydrofolate reductase (Homo sapiens, UniProt P00374)
T1 sequence (P00374 whole entry): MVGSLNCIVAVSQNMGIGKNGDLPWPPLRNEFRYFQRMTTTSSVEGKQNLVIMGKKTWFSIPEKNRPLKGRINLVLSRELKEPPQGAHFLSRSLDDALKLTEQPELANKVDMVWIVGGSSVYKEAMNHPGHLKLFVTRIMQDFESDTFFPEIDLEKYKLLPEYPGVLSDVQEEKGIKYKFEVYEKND
Description: Compound was evaluated for Dihydrofolate Reductase (DHFR) inhibition

[1] = Compound was evaluated for cell growth inhibition of human (WI-L2) leukemic cells.; format: functional, cell-based; conditions: WIL2

| IC50 (Dihydrofolate reductase) [µM] | SMILES | IC50 [1] [µM] |
| --- | --- | --- |
| > 20 | Cc1nc(N)c2nc(CN(C)c3ccc(C(=O)NC(CCC(=O)O)C(=O)O)cc3)cnc2n1 (stereo not drawn) |  |
| 6 | CN(Cc1cnc2ncnc(N)c2n1)c1ccc(C(=O)NC(CCC(=O)O)C(=O)O)cc1 (stereo not drawn) |  |
|  | Nc1nc(N)c2nc(CNc3ccc(C(=O)N[C@@H](CCC(=O)O)C(=O)O)cc3)cnc2n1 [AMINOPTERIN] | 0.007 |

From ChEMBL document CHEMBL1125867 (J Med Chem, 1991)
